{"source": "patent US9587002B2", "about": "“Sequence of nucleotides and peptides GSE 24.2 of dyskerin, which can induce telomerase activity, method for obtaining same, therapeutic compositions and applications thereof” (CONSEJO SUPERIOR DE INVESTIGACIONES CIENTIFICAS, priority 2005, dated 2017)", "key": {"[1]": {"biological_target": "T1, telomerase (Homo sapiens, UniProt O14746)", "T1 sequence (O14746 whole entry)": "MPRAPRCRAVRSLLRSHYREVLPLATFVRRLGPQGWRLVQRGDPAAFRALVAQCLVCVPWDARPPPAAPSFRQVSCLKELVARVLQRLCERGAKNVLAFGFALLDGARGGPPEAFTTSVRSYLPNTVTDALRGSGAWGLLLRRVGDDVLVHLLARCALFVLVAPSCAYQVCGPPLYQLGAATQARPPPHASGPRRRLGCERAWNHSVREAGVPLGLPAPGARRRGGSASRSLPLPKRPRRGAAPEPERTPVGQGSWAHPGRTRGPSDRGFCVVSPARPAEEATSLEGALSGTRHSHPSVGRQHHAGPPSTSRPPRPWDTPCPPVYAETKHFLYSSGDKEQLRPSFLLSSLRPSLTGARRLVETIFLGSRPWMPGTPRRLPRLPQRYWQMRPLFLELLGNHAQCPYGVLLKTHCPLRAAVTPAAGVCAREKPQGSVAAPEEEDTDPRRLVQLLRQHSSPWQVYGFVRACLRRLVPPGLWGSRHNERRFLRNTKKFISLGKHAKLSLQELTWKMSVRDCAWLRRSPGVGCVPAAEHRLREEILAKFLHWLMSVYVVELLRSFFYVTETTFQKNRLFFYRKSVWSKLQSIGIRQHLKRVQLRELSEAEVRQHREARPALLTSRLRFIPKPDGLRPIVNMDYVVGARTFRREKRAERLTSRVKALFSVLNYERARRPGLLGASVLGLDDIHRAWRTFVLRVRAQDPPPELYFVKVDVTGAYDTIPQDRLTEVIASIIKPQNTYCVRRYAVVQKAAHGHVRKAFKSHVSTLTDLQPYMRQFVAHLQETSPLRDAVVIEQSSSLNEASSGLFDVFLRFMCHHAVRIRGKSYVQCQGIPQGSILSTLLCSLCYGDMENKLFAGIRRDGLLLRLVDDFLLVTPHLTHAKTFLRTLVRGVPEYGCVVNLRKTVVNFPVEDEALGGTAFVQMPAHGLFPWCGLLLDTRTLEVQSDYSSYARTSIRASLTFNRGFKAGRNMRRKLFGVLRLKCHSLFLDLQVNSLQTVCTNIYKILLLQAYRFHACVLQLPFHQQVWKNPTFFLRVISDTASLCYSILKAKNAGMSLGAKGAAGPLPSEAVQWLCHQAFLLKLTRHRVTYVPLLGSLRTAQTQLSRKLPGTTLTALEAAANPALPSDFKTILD", "T1 sequence (O60832 2-514 partner limits assumed)": "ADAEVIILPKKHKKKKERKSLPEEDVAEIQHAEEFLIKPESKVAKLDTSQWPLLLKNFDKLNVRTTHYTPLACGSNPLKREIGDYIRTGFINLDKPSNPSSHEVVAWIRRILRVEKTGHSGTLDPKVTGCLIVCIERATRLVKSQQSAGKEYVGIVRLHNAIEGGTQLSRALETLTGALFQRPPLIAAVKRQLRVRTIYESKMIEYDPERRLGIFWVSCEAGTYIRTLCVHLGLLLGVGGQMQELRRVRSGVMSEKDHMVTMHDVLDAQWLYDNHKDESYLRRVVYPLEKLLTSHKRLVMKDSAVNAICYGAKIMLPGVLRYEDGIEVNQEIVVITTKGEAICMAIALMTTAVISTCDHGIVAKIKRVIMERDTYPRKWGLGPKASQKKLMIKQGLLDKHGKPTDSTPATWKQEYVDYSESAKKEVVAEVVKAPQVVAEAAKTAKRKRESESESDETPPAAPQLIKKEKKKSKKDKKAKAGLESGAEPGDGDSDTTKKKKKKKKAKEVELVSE", "T1 sequence (Q9NPE3 whole entry partner)": "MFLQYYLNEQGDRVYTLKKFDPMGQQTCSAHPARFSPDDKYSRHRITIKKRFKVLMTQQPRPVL", "T1 sequence (Q9NX24 whole entry partner)": "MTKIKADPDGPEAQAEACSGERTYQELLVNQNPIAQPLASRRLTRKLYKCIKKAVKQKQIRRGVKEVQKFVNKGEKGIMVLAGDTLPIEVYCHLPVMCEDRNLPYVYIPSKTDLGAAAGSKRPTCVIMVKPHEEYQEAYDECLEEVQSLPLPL", "T1 sequence (Q9NY12 whole entry partner)": "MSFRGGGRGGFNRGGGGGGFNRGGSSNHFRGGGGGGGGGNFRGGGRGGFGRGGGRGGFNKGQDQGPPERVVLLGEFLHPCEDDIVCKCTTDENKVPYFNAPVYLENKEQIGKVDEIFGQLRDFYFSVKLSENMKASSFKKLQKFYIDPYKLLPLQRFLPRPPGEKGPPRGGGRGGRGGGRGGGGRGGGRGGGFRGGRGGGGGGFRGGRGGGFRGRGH", "T1 sequence (Q9BUR4 whole entry partner)": "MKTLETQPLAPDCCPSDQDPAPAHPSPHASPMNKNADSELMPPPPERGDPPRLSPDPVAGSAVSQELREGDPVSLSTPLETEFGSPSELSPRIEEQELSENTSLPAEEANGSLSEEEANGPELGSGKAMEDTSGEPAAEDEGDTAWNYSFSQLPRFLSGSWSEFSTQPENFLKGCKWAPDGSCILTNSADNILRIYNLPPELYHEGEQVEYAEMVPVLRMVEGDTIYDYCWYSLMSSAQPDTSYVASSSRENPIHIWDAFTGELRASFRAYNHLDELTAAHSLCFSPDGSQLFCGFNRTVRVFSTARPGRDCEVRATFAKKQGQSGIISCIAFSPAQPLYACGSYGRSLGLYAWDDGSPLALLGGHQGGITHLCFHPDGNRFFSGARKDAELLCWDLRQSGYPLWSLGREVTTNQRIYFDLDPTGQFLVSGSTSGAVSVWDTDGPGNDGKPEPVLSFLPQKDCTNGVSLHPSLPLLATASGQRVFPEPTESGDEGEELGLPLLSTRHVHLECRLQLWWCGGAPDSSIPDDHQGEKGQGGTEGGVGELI", "settings": "different cell lines / G-quadruplex formation in telomeres; cited from earlier work"}, "[2]": {"tested_on": "hTR", "experiment": "RT-PCR expression of hTR in 293T cell lines after cisplatin", "assay_type": "cell-based, human", "settings": "pLNCX and pLNCX 24.2 cells; 3 μg/ml, 3 and 7 days", "method": "(§1) FIG. 7.—Expression levels of different genes related to telomerase in 293T cells: pLNCX and 24.2 following treatment with cisplatin. The cells were seeded in 60-mm plates, treated with 3 μg/ml of cDDP following pre-treatment with 0.5 μg/ml of cisplatin for 3 days and, subsequently, collected at the times specified in the figure (3 and 7 days). Following the extraction of RNA, RT-PCR was performed with oligos specific for hTERT, hTR and dyskerin in order to study the expression levels of the messenger RNAs. As a starting RNA control, oligos for the amplification of GAPDH were used.\n(§2) One of the explanations for the lower sensitivity of pLNCX 24.2 cells to cisplatin could be a change in the levels of some of the components of the telomerase complex. Therefore, the expression levels of different genes involved in the telomerase complex and the effect that cisplatin had on their expression were studied. To this end, the pLNCX and pLNCX 24.2 cells were pre-treated with 0.5 μg/ml and treated with 3 μg/ml of cisplatin for 3 and 7 days. Using oligos specific for hTR, hTERT and dyskerin, the expression levels of these genes and the effect of cisplatin on said expression were studied. […] This change in the sensitivity to cisplatin could explain, at least partially, the difference in sensitivity in the telomerase activity assays.\n(§3) Expression of genes by RT-PCR. […]"}, "[3]": {"tested_on": "hTERT", "experiment": "RT-PCR expression of hTERT in 293T cell lines after cisplatin", "assay_type": "cell-based, human", "settings": "pLNCX cells; 3 μg/ml, 3 days of treatment", "method": "as §1, §2, §3"}, "[4]": {"biological_target": "T1, telomerase", "experiment": "Telomerase activity (TRAP) of 293T cell lines treated with cisplatin", "assay_type": "cell-based", "set-up": "endogenous in cells; host or cells: 293T cells stably transfected with empty pLNCX or pLNCX 24.2", "settings": "293T pLNCX cells; pre-treated 0.5 μg/ml 3 days, then 3 μg/ml, 7-day treatment", "method": "FIG. 5.—Telomerase activity of the 293T cell lines: pLNCX and 24.2 following treatment with cisplatin. The cells were seeded in 60-mm plates, pre-treated with 0.5 μg/ml of cisplatin for 3 days and subsequently treated with cisplatin at a dose of 3 μg/ml […]. The telomerase activity was measured by means of the Intergen TRAPeze assay. The experiment was performed 3 times, with similar results.\nTo this end, an assay of telomerase activity was performed using the TRAP method with the pLNCX and pLNCX 24.2 cell lines (FIG. 5), pre-treating them for 3 days with 0.5 μg/ml of cisplatin; subsequently, they were treated with 3 μg/ml of cisplatin for 3 and 7 days. […]\nTelomerase activity assay based on the TRAP method Wright et al., 1995). The telomerase activity was measured using the TRAPeze telomerase detection kit (Intergen) in accordance with the instruction manual. The protein concentration of each extract was quantified by means of the Bradford method using the BIORAD reagent and after performing a PCR in accordance with the manual instructions; polyacrylamide gel electrophoresis was performed with the reaction products under non-denaturing conditions and, subsequently, it was stained with Ethidium bromide for 30 minutes."}, "[5]": {"tested_on": "dyskerin", "experiment": "RT-PCR expression of dyskerin in 293T cell lines after cisplatin", "assay_type": "cell-based, human", "settings": "pLNCX and pLNCX 24.2 cells; 3 μg/ml, 3 and 7 days", "method": "as §1, §2, §3"}}, "data": [{"smiles": "N.N.[Cl][Pt][Cl]", "note": "[cisplatin]", "values": [{"measurement": "inhibition of telomerase activity (literature)", "setting": "[1]", "result": "capable of inhibiting telomerase activity"}, {"measurement": "effect of cisplatin on hTR expression", "setting": "[2]", "result": "no effect"}, {"measurement": "effect of cisplatin on hTERT expression", "setting": "[3]", "result": "reduction in the expression of hTERT"}, {"measurement": "effect of cisplatin on telomerase activity", "setting": "[4]", "result": "caused inhibition of telomerase activity"}, {"measurement": "effect of cisplatin on dyskerin expression", "setting": "[5]", "result": "no effect"}]}]}
